pEC50: −log10 of the molar value. Where two headings read alike, the source gives them in different places.
What was measured:
[1] = system: SRSF6 and SRSF5 phosphorylation in SW480 cells; experiment: SR phosphorylation immunoblot; format: cell-based, human; conditions: SW480, 1 hour
Procedure: FIG. 6A is an immunoblot showing phosphorylated SRSF6 and SRSF5 in SW480 cells treated as indicated for 1 hour. Total SRSF5 and R-actin blots were used as loading controls. The blots are representative of two experiments.
First, it was determined that CLK1, CLK2, and CLK3 localized into the nucleus, while CLK4 was predominantly detected in the cytoplasm (FIG. 5). […]. Zhou et al., Chromosoma 122, 191-207, 2013).
(§1) For indicated experiments, cells were pelleted by centrifugation and washed with PBS and protein from the cell pellet was fractionated into cytoplasmic and nuclear fractions using a NE-PER™Nuclear and Cytoplasmic Extraction Reagents kit containing Halt™ protease and phosphatase inhibitors (Thermo Fisher). Protein concentrations of the samples were quantified using the Pierce Micro BCA protein assay kit (Thermo Fisher). […] Primary antibodies were incubated overnight at 4° C., with GAPDH, Lamin B1 or β-actin being used as loading controls (refer to Table 19 for primary antibodies and dilutions used).

[2] = system: nuclear speckles in SW480 cells; experiment: Nuclear speckle staining (phospho-SC35); format: cell-based, human; conditions: SW480, 6 hours, 0.3-10 μM
Procedure: […]. The cells were stained with a phospho-SC35 antibody (green) and a Hoechst 33342 nuclear stain (blue). Scale bar, 10 μm.
FIG. 9A is a set of representative immunofluorescence images (×100 magnification) of SW480 cells treated with indicated concentrations for 6 hours. The cells were stained with a phospho-SC35 antibody (green) and a Hoechst 33342 nuclear stain (blue). Scale bar, 10 μm.
[…]. After approximately 6 hr, cells were fixed and stained a phospho-SC35 antibody (Santa Cruz Biotechnology). Cells were then labelled with an Alexa-Fluor 488 secondary antibody (Thermo Fisher) containing DAPI (Thermo Fisher). Cells were imaged at 100× magnification.

SW480 cells [3] = experiment: Wnt pathway gene (qRT-PCR) and protein (immunoblot) expression; format: cell-based, human; conditions: SW480, 24 hours, compared to DMSO
Procedure: Fold-change relative to DMSO is shown (n=3 biological replicates per group, Mean±SD, **P<0.01; ***P<0.001, student's two-tailed t-test).
(§2) FIG. 6D is an immunoblot showing Wnt pathway-related protein expression in SW480 cells treated as indicated for 24 hours. The proteins were separated into nuclear and cytoplasmic fractions. GAPDH and Lamin B1 represent cytoplasmic and nuclear protein loading controls, respectively. The blots are representative of two experiments.
as §2, with “6E” for “6D”, “48” for “24”
The fold-change relative to DMSO is shown (n=3 biological replicates per group, Mean±SD, *P<0.05; **P<0.01; ***P<0.001, student's two-tailed t-test).
FIG. 7C is an immunoblot showing protein expression of hits identified in FIG. 7A. SW480 cells were treated as indicated for 24 hours and proteins were separated into nuclear and cytoplasmic fractions. GAPDH and Lamin B1 represent the cytoplasmic and nuclear protein loading controls, respectively. The blots are representative of two experiments.
as §1
Total RNA was isolated using RNeasy Plus mini kit (Qiagen) or MagMAX Total RNA kit (Thermo Fisher) as per the manufacturers' protocol. cDNA was synthesized using the iScript cDNA Synthesis Kit (Bio-Rad), followed before performing qRT-PCR. Reactions were then run on a real-time PCR system (CFX384; Bio-Rad). Relative gene expression was determined by normalizing to GAPDH using the ΔΔCt method.

[4] = system: Wnt responsive TOPflash reporter in SW480 colon cancer cells; experiment: TOPflash β-catenin/TCF-responsive reporter assay; format: cell-based, human
Procedure: Human colorectal cancer cell line SW480, stably expressing the Wnt responsive TOPflash promoter linked to luciferase gene (TOPflash) was used along with SW480 stably expressing a control EF1a-Luciferase reporter gene (GenTarget #LVP434) as a counterscreen. […] Cells were plated at ˜10,000 cells/well and incubated for 40 hours. Luminescence was detected using Bright-Glo (Promega Corp.).

SW480 cells [5] = experiment: Cell viability assay in SW480 cells (Compound 12, CC-671, Harmine); format: cell-based; conditions: Homo sapiens, SW480, 96 h, read-out: EC50 cell viability
From the text: The data is representative from three independent assays performed in quadruplicate.

Compound | SR phosphorylation (SRSF6, SRSF5) [1] | enlargement of nuclear speckles [2] | gene expression of AXIN2, LEF1, MYC, TCF7, CTNNB1 and TCF7L2 (SW480 cells [3]) | pEC50 ([4]; Homo sapiens) | pEC50 (SW480 cells [5]) | pEC50 [4]
CNC(=O)c1ccc(Nc2nc(OC3CCCC3)c3c(-c4ccc5nc(C)oc5c4)c[nH]c3n2)c(OC)c1 [CC-671, reference compound] | not as effective as Compound 12 | only at higher doses of 10 μM and 3 μM | minimal effect |  |  | 
COc1ccc2c(c1)[nH]c1c(C)nccc12 [Harmine] | not active | not observed | minimal effect | < 5.00 | < 5.00 | 
C[C@H]1[C@H]2N(C(=O)CN(C)N2C(=O)NCc2ccccc2)[C@@H](Cc2ccc(OP(=O)(O)O)cc2)C(=O)N1Cc1cccc2cccnc12 [PRI-724] |  |  |  |  |  | 5.97

— patent US20220062240A1, “METHODS OF TREATING CANCER USING A CLK INHIBITOR” (BioSplice Therapeutics, Inc., priority 2018, published 2022)
